Experimental data from article PMC7504735, “Enhanced Antigiardial Effect of Omeprazole Analog Benzimidazole Compounds” (Molecules, 2020).
Where two headings read alike, the source gives them in different places.

Experiments:
[1] = system: Giardia lamblia trophozoites; parameters: method as in PMID 28798383; settings: previously reported; cited from earlier work
[2] = molecular target: T1, triosephosphate isomerase (TPI) (Giardia intestinalis, UniProt P36186); parameters: method as in PMID 28798383; settings: previously reported; cited from earlier work
T1 construct: His-tag (TEV-cleavable) (cleaved yes); made in house

[3] = molecular target: T1, triosephosphate isomerase (TPI); settings: cited from earlier work
[4] = molecular target: T1, triosephosphate isomerase (TPI); parameters: method as in PMID 28798383; settings: BHO2 comparison; cited from earlier work
[5] = system: VERO cells; parameters: method as in PMID 28798383; settings: cited from earlier work
[6] = system: Giardia lamblia trophozoites; experiment: Antigiardial activity on G. lamblia trophozoites, trypan blue dye exclusion; type: cell-based; settings: Giardia duodenalis, 48 h at 37 °C, pH 7.4, trypan blue
Description: Giardia lamblia WB strain (ATCC number 30957) was grown in a modified TYI-S-33 medium supplemented with 10% fetal bovine serum. The parasite was cultivated in 15 mL screw-capped borosilicate glass tubes containing 13 mL medium. The tubes were incubated on a 15° horizontal slant at 37 °C. Giardia was harvested from confluent culture by chilling the tubes on ice for 5‒10 min to detach cells, followed by centrifugation at 800× g for 5 min.
The antigiardial activity of the prepared compounds was tested as described. One milligram of a test compound was dissolved in 10 L of DMSO and topped up with 1 mL growth medium. The solution was filter-sterilized using 0.22-m syringe filters and the appropriate volumes of the solutions were taken to prepare the concentration of each compound in 1.5 mL microtubes. For each preparation, concentrations of 500, 250, 125, 62, and 31 µg/mL were prepared in a final volume of 1.5 mL. Each tube was inoculated with 5 × 10^4 trophozoites of G. lamblia and then incubated for 48 h at 37 °C. After incubation, 75 L of the treated trophozoites were subcultured individually for another 48 h in a fresh medium free of compounds. At the end of this period, the viable trophozoites were counted. Each compound was assayed in duplicate in three independent experiments. In each assay, appropriate controls were also tested, including a sample without compound and another with DMSO.
The parasites in each tube were counted using a standard hemocytometer at 10× objective. In each count, trypan blue was employed to distinguish live parasites from dead ones. To permit detachment of Giardia, the tubes were placed on ice for 10 min and the parasites were then centrifuged at 800× g for 10 min. The supernatant was discarded and 1 mL fresh medium was added to each tube. The final suspension was prepared by mixing 25 μL of the parasite suspension in each tube with 100 μL of 0.4% trypan blue in phosphate-buffered saline (PBS). The 50% inhibitory concentration (IC50) was employed as a parameter for biological activity. The IC50 is the concentration of compounds that cuts the number of parasites to half that in the negative control (growth medium + DMSO + parasites). Lastly, the 50% inhibitory concentration (IC50) was calculated.

[7] = molecular target: T1, triosephosphate isomerase (TPI); experiment: Inactivation of recombinant TPI enzyme with compounds; type: biochemical
Description: The TPI from G. lamblia was expressed and purified. […] When the culture reached A600 = 0.8, it was induced using 0.4 mM IPTG and incubated overnight at 30 °C with shaking at 180 rpm. After the bacteria were collected by centrifugation (10,000× g, 15 min) and suspended in 40 mL of lysis buffer, pH 8.0 (50 mM Tris, 50 mM NaCl, 5 mM β-mercaptoethanol, and 1 mM phenylmethylsulfonyl fluoride). The bacterial suspension was disrupted by sonication and centrifuged at 9000× g for 1 h at 4 °C. Protein purification was performed by immobilized metal affinity chromatography (IMAC) using a Profinity Ni^2+ charged resin (Bio-Rad) previously reported by Enriquez-Flores et al.. The His-tag sequence was removed from the TIM by incubation with TEVP at a molar ratio of 30:1 (TPI/TEVP) at room temperature for 17 h in digestion buffer, pH 8.0 (50 mM Tris, 0.5 mM ethylene diamine tetraacetic acid (EDTA), and 1 mM dithiothreitol). The enzyme concentration was spectrophotometrically determined at 280 nm, and the enzyme was used immediately.
Enzyme activity of TPI was determined spectrophotometrically as described by monitoring the conversion of glyceraldehyde-3-phosphate (GAP) to dihydroxyacetone phosphate (DHAP). […] The standard reaction mixture contained 1 mM GAP, 0.2 mM NADH, and 0.9 units/mL of α-GDH in TE buffer (100 mM triethanolamine, 10 mM EDTA, pH 7.4). The reaction was initiated by adding 5 ng/mL of TPI to the reaction mixture.
To determine the inactivation of the TPI enzyme from G. lamblia, we performed inactivation assays of the enzyme in the presence of the synthesized compounds. The compounds’ stock solutions were freshly prepared using 100% dimethyl sulfoxide (DMSO) as the solvent at 25 mM. […] After the incubation period, the enzymatic activity was measured by withdrawing an aliquot of each experimental condition, as described above. The results were expressed in terms of the percentage of activity versus the compound’s concentration.

T1 sequence (P36186 whole entry): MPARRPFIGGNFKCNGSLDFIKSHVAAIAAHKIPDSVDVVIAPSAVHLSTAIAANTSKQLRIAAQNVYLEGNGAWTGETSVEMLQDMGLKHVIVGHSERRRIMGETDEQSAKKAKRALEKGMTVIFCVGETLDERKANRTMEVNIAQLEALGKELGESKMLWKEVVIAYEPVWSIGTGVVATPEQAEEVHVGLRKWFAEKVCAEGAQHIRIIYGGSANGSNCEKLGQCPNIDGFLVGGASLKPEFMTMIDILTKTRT

Row | SMILES | IC50 [1] | IC50 [2] | Second-order inactivation constant k2 ([3]; previously reported) | also measured
1 | COc1c(C)cnc(C[S+]([O-])c2nc3ccc(C)cc3[nH]2)c1C (stereo not drawn) [BHO2] | 120 µM | 64 µM | 1.6 M⁻¹ s⁻¹ | Loss of intrinsic fluorescence signal of TPI [4]: 25%; CC50 for mammal cells (VERO) [5]: millimolar ranges
2 | COCCCOc1ccnc(C[S+]([O-])c2nc3ccccc3[nH]2)c1C (stereo not drawn) [rabeprazole] | – | – | – | Second-order inactivation constant k2 ([3]; reported by García-Torres et al.): 2.66 M⁻¹ s⁻¹
3 | COc1ccc2[nH]c([S+]([O-])Cc3ncc(C)c(OC)c3C)nc2c1 (stereo not drawn) [Omeprazole] | 300 µM | 225 µM | 0.78 M⁻¹ s⁻¹ | –
4 | [O-][S+](Cc1ccccn1)c1nc2ccccc2[nH]1 (stereo not drawn) [H-BZM1] | – | – | – | IC50 [6]: 676 µM; IC50 [7]: > 500 µM; Loss (reduction) of TPI enzyme activity ([7]; 500 µM compound, 2 h at 37 °C): 25%
